According to patent US9539223B2, “Methods for treating bacterial infections” (Neoculi Pty Ltd., priority 2013, dated 2017):
Values after ≈ are worked out from the molar mass of the structure shown. Read-outs that look alike come from different tables or passages of the source.

Key:
[1] = test system: Streptococcus pneumoniae; assay: Minimum inhibitory concentration assay (CLSI), Str. pneumoniae isolates; format: cell-based
Protocol: Minimum inhibitory concentration tests were performed according to CLSI Standards (CLSI 2008). […] The solutions were then serially diluted across the row, leaving 2 columns for positive and negative controls. A bacterial suspension was prepared by adding fresh colonies obtained from an overnight culture on Sheep Blood Agar (SBA) to a 9.1 g/L saline solution. This suspension was adjusted to a concentration of between 4×10^8 and 5×10^8 CFU/mL. Concentration of the suspension was determined by measuring optical density (OD) using a spectrophotometer at a wavelength of 600 nm where the correct concentration was determined to have an optical density of between 1.00 and 1.20. One milliliter of this suspension was added to 9 mL of saline before being added to all wells, excluding the negative control wells, in 10 μL volumes giving a final concentration of between 4×10^5 and 5×10^5 CFU/mL in each well. The tests were then incubated for 24 hours at 37° C. and then assessed both visually and using OD readings from a microplate reader at a wavelength of 600 nm. These tests were performed in duplicate but repeated if discrepancies were observed.
The minimum inhibitory concentration (MIC) was determined to be the lowest concentration of antibiotic that prevented growth of bacteria both visually and using OD readings. […]

[2] = test system: RNA synthesis in S. aureus ATCC 29213; assay: RNA synthesis, [3H] uridine incorporation; format: cell-based, Staphylococcus aureus; settings: 0.25 to 8-fold the MIC
Protocol: Cells were grown at 35° C. overnight on Trypticase Soy agar. A colony from the plate was used to inoculate 10 ml of Mueller Hinton broth II (MHBII), and the culture was grown to early exponential growth phase (OD600=0.2 to 0.3) while incubating in a shaker at 35° C. and 200 rpm.
When cells reached early exponential phase, 100 μl of culture was added to triplicate wells containing various concentrations of test compound or control antibiotics (5 μl) at 20× the final concentration in 100% DMSO. A 5% DMSO treated culture served as the “no drug” control for all experiments. Cells were added in MHBII at 105% to account for the volume of drug added to each reaction or in M9 minimal medium for protein synthesis reactions. Following 15 min incubation at room temperature, either [3H] thymidine (DNA synthesis), [3H] uridine (RNA synthesis) or [3H] leucine (protein synthesis) was added at 0.5-1.0 μCi per reaction, depending on the experiment. Reactions were allowed to proceed at room temperature for 15-30 min and then stopped by adding 12 μl of cold 5% trichloroacetic acid (TCA) or 5% TCA/2% casamino acids (protein synthesis only). […] After washing three times with 5 ml of cold 5% TCA, the filters were rinsed two times with 5 ml 100% ethanol, allowed to dry, and then counted using a Beckman LS3801 liquid scintillation counter.

[3] = test system: S. pneumoniae strain D39; assay: Macro-broth dilution time kill studies; format: cell-based, Streptococcus pneumoniae
Protocol: Bacterial suspensions and working antibiotic stocks were prepared as described above. [For preparing macro-broth dilutions, 20 ml tubes were filled each with 9 mls of 4% LHB:CAMHB. 9 mls of a working antimicrobial stock was diluted 1:2 when added to one of the tubes, and then serial diluted down from a high to low concentration of antimicrobial. 1 ml of S. pneumoniae bacterial suspension was added to the appropriate tubes, including the positive control. […] At every 2-3 hrs during the first 12 hrs of growth and then at 24 hrs and 48 hrs, 50 μL of each bacterial suspension was spread plated onto HBA and incubated at 37° C. with 5% CO2 for 16-24 hrs.]
Cultures were incubated at 37° C. in 5% CO2 with gentle manual tilting every 10 mins for the first 12 hrs. Viable counts from 50 μL aliquots of each concentration were read following incubation at 37° C. in 5% CO2 for 24 hrs. The pH of each sample was measured at specific time points using pH indicator strips. Confluent growth was defined when more than 1000 colonies were counted per plate. A bactericidal effect was defined as a 3-log 10-unit reduction (99.9%) of the original cell suspension determined at 24 hrs for each concentration.

[4] = test system: Staphylococcus pseudintermedius; assay: MBC testing (CLSI), S. pseudintermedius isolates; format: cell-based
Protocol: After the MICs were determined, the minimum bactericidal concentrations were performed to determine if these compounds are bacteriostatic or bacteriocidal.

[5] = cited from earlier work

SMILES: N=C(N/N=C/c1ccc(Cl)cc1)N/N=C/c1ccc(Cl)cc1 [NCL812, 1,2-bis[(E)-(4-chlorophenyl)methylideneamino]guanidine]
- MIC50 [1]: 4 mg/L (≈ 12 µM)
- MIC90 [1]: 4 mg/L (≈ 12 µM)
- inhibition of RNA synthesis [2]: very similar to the DNA synthesis study
- growth ([3]; 2 μg/ml NCL812): Consistent confluent growth
- appeared to be inactivated at ([3]; 4 μg/ml and 8 μg/ml, post-exposure): 11 h
- time to eliminating bacterial growth ([3]; between 16 μg/ml and 64 μg/ml NCL812): ≤ 8 h
- activity based on minimal bactericidal concentrations (MBC) [4]: bactericidal
- solubility ([5]; PBS): precipitation
- solubility ([5]; water containing 4% DMSO, following initial dilution in 100% DMSO): complete solubility
